Read-outs that look alike come from different tables or passages of the source.
Columns and labels:
ovarian cancer organoids = test: Patient-derived ovarian cancer organoid cell viability; assay type: cell-based, human; conditions: for cell viability: chemo sensitive and chemo resistant organoids, FIGS. 11A-11D
Method: (§1) Development of patient derived organoids: The patient derived organoids were created as follows: the patient's tissue sample was collected after surgery and bathed in Hank's Balanced Salt Solution (HBSS) (Hyclone, SH30031.02) with 1% Pencillin/Streptomycin (P/S) (Life Technologies, 15070-063) on ice. Then the sample was washed three times with Dulbecco's phosphate-buffered saline (DPBS) and 1% P/S on a shaker (70 rpm) for 15 minutes each. The tissue was then transferred into a presterilized cell-culture hood to mince it finely with a sterile blade. All minced parts were then digested in an enzyme named Accumax (Innovative Cell Technologies Inc., AM105-500) for 2.5 hours at room temperature. After 2.5-hour incubation, the whole digested tissue mince was transferred in another enzyme, TrypLE express, (Gibco, 12604-021) for another 45 minutes in a 37° C. water bath. During this time the solution was continuously agitated in every 5 minutes interval. After 45 minutes of incubation, the solutions were passed through 70 μm filter on a 50 mL falcon tube. The filter was removed, and the flowthrough with the cells was collected in 5% FBS AD+++ medium (comprising 1% TS, 2% B27, 1% N2, 25% WRN, hegf 50 ng/ml, hfgf 10-100 ng/ml, Nicotinamide 1 mM, N-acetyl cysteine 1.25 mM, Primocin 0.2%, Estrogen 2 nm, A8301 0.5 μM, and Y27632). This cell suspension was centrifuged at 1000 rpm for 5 minutes at room temperature to get the cell pellet for counting. Upon checking under hemocytometer cell number was calculated and processed for organoid culture. After checking under a microscope if we found RBC contamination in the final cell suspension, then we used Red Blood Cell Lysis Buffer (Roche Diagnostics, 11814389001) to get rid of the excess RBC. Human patient cells from endometrial cancer were grown and maintained in a humidified chamber at 37° C. with 5% CO2.
For the Ascites samples, we centrifuged the ascites fluid at 1000 rpm for 10 minutes at room temperature to get the cell suspension. The cell suspension was then treated with Red Blood Cell Lysis Buffer (Roche Diagnostics, 11814389001) to remove the RBC from the final cell suspension. Once samples were created, they were ready for testing, which included treating the organoids with cannabis extract. Additional cells were cultured in the same manner as above.
(§2) To culture patient-derived organoids, 2-3×10^3 cells were plated in a prewarmed (37° C.) 96-well plate in […] of Matrigel (5% FBS AD+++ medium) per well. Individual patient cell organoid was cultured separately in different plates. Individual patient cells were handled separately to reduce the chance of cross-contamination. After mixing cells with Matrigel, […] droplets were placed in wells and put in a 37° C. incubator with 5% CO2 for 30 minutes. Upon solidification of the Matrigel droplet with cells inside, the plate was placed inside a sterile hood and immersed the Matrigel droplet in 200 μL of organoid growth media. Cells were allowed to grow into mature organoids for 14 days. […] All treatments were done in triplicate, including vehicle-only controls (Dimethyl sulfoxide in culture medium at the highest concentration used for drug treatments).
(§3) Note: IC50 is the 50% inhibitory concentration which is conventionally used to determine drug potency with cell-based cytotoxicity tests. Similarly, all of the antioxidants were tested under the same protocol.
To assess the cell viability in organoids after treatments, CellTiter-Glo® Luminescent Assay (Promega #G7572) was used. In brief, on day 14 of organoid culture, the matrigel droplet in each well with organoid inside was immersed in 100 μL of fresh growth media and 100 μL of CellTiter-Glo® reagent following the manufacturer's guideline. Blank wells containing only media and CellTiter-Glo® reagent (no cells) were also included in each plate. […]

[1] = tested on: endometrial cancer organoids; test: Patient-derived endometrial cancer organoid cell viability (CellTiter-Glo); assay type: cell-based, human
Method: as §1, §2, §3
To assess the cell viability in organoids after treatments, CellTiter-Glo® Luminescent Assay (Promega #G7572) was used. In brief, on day 14 of organoid culture, the matrigel droplet in each well with organoid inside was immersed in 100 μL of fresh growth media and 100 μL of CellTiter-Glo® reagent following the manufacturer's guideline. Blank wells containing only media and CellTiter-Glo® reagent (no cells) were also included in each plate. Then the plates were put on a shaker at 110 RPM at room temperature for […] minutes to induce cell lysis, followed by 25 minutes at room temperature to stabilize the luminescent signal. Each step after adding the CellTiter-Glo® reagent was performed in the dark. Luminescence was measured on a FLUOstar OPTIMA plate reader (BMG Lab technologies, Offenburg, Germany). Analysis was performed by normalizing treatment values to the vehicle control and plotting them as a percentage of the vehicle control.

[2] = tested on: patient derived endometrial cancer cells; test: Patient-derived xenograft (PDX) mouse model, tumor volume; assay type: in vivo; conditions: monotherapy 30 mg/kg intraperitoneal, by day 14 and at day 21
Method: Human patient cells from endometrial cancer were injected subcutaneously into female NOD/SCID gamma mice after resuspending in 100 μL solution. […] Tumor size measured before treatment, followed by twice a week measurement. All treatment group mice were kept alive for up to 10 weeks after drug injection or until the tumor volume grows bigger than 2,500 mm^3.
Tumor size was measured along with body weight at the time of tissue collection. All tumor tissues were removed carefully from the euthanized mouse body. Tumor tissue samples were kept for histology, proteomics, genomics, and other downstream processing. All downstream processing was completed following NCI Patient-Derived Models Repository SOPs. Tumor volume graph will be plotted using GraphPad Prism 9.
The mouse studies utilized intraperitoneal dosing of various formulations of cannabis extracts comprising a known quantity of CBD.

[3] = tested on: chemoresistant EC, which had metastasized; test: Testing within human patients; assay type: in vivo
[4] = cited from earlier work

SMILES	cell viability (ovarian cancer organoids)	reduction in organoid formation in all patients ([1]; dosing up to 50 μg/mL) [%]	tumor volumes [2]	efficacy at killing the organoids compared with native pH (ovarian cancer organoids; pH 8)	response of patient derived organoids ([1]; 7 or 10 μg/mL, FIGS. 4B and 4C)	eradication ([1]; IC50 of cannabis extract combined with the higher doses of carboplatin) [%]	efficacy in human patients [3]	increase of Cmax ([4]; coadministration with high fat food)	Tmax ([4]; delivery via the nasal mucosa)	maximum plasma concentration (time) ([4]; oral-mucosal or sublingual delivery) [h]	maximum plasma concentration (time) ([4]; orally delivered) [h]
C=C(C)[C@@H]1CCC(C)=C[C@H]1c1c(O)cc(CCCCC)c(C(=O)O)c1O [CBDA, cannabidiolic acid]	dramatically reduce cell viability	~100	decreased	–	–	–	–	–	–	–	–
C=C(C)[C@@H]1CCC(C)=C[C@H]1c1c(O)cc(CCCCC)cc1O [CBD isolate, cannabidiol]	dramatically reduce cell viability	–	decreased	virtually no change	virtually all patients respond	~100	–	–	–	–	–
C=C(C)[C@@H]1CCC(C)=C[C@H]1c1c(O)cc(CCCCC)cc1O [CBD, cannabidiol]	–	–	–	–	–	–	effective in reducing chemoresistant EC	up to 5 fold	approximately 10 minutes	1.6	2.5 to 5

Reference: US12318399B2 (priority 2022, dated 2025)
